Assay results reported in the supplement of paper PMC4862054.

Tests used:
Conditions in all cases: incubation time: 72 h
BT-474 = experiment: normalised viability (% of control), CellTiter-Blue; higher = more viable cells (about 100 = DMSO control)
Summary of the method: (§1)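 The reported figure is normalised viability at a single listed concentration of the series. Breast cancer cell lines (20 µl suspension) went onto 384-well plates holding compound in 5 µl medium for 72 h. CellTiter-Blue (2.5 µl, 2 h, 37 °C) was read by fluorescence at 560/590 nm, and each plate was scaled to vehicle at 100 and a positive kill control at 0.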

BT-549 = experiment: as above
Summary of the method: as §1

CAL-120 = experiment: as above
Summary of the method: as §1

CAL-148 [1] = experiment: as above
Summary of the method: as §1

CAL-51 [2] = experiment: as above
Summary of the method: as §1

CAL-85-1 [3] = experiment: as above
Summary of the method: as §1

DU-4475 [4] = experiment: as above
Summary of the method: as §1

HCC1143 = experiment: as above
Summary of the method: as §1

HCC1599 = experiment: as above
Summary of the method: as §1

HCC1937 = experiment: as above
Summary of the method: as §1

HDQ-P1 [5] = experiment: as above
Summary of the method: as §1

Hs578T = experiment: as above
Summary of the method: as §1

MDA-MB-231 = experiment: as above
Summary of the method: as §1

MDA-MB-436 = experiment: as above
Summary of the method: as §1

MDA-MB-453 [6] = experiment: as above
Summary of the method: as §1

MDA-MB-468 = experiment: as above
Summary of the method: as §1

MFM-223 [7] = experiment: as above
Summary of the method: as §1

SK-BR-3 = experiment: as above
Summary of the method: as §1

CAL-148 [8] = experiment: normalised viability (% of control), CellTiter-Blue; higher = more viable cells (about 100 = DMSO control); remark: listed apart in the source
Method: (§2)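 DSRT, CellTiter-Blue viability, 72 h incubation. Signal is normalised to DMSO and benzethonium chloride controls. Value is the normalised response at dose 6.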

CAL-51 [9] = experiment: as above; remark: listed apart in the source
Method: as §2

CAL-85-1 [10] = experiment: as above; remark: listed apart in the source
Method: as §2

DU-4475 [11] = experiment: as above; remark: listed apart in the source
Method: as §2

HDQ-P1 [12] = experiment: as above; remark: listed apart in the source
Method: as §2

MDA-MB-453 [13] = experiment: as above; remark: listed apart in the source
Method: as §2

CAL-148 [14] = experiment: as above; remark: listed apart in the source
Method: (§3)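 DSRT, CellTiter-Blue viability, 72 h incubation. Signal is normalised to DMSO and benzethonium chloride controls. Value is the normalised response at dose 9.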

CAL-51 [15] = experiment: as above; remark: listed apart in the source
Method: as §3

CAL-85-1 [16] = experiment: as above; remark: listed apart in the source
Method: as §3

DU-4475 [17] = experiment: as above; remark: listed apart in the source
Method: as §3

HDQ-P1 [18] = experiment: as above; remark: listed apart in the source
Method: as §3

CAL-148 [19] = experiment: normalised viability (% of control), CellTiter-Blue; higher = more viable cells (100 = DMSO, 0 = benzethonium chloride kill control)
Summary of the method: as §1

CAL-51 [20] = experiment: as above
Summary of the method: as §1

MFM-223 [21] = experiment: as above
Summary of the method: as §1

CC[C@]1(O)C[C@H]2CN(CCc3c([nH]c4ccccc34)[C@@](C(=O)OC)(c3cc4c(cc3OC)N(C=O)[C@H]3[C@@](O)(C(=O)OC)[C@H](OC(C)=O)[C@]5(CC)C=CCN6CC[C@]43[C@@H]65)C2)C1 [Vincristine]
Conditions	normalised viability [%]
BT-474, 1000 nM	55.9
BT-474, 10000 nM	47.9
BT-549, 1000 nM	14.6
BT-549, 10000 nM	20.2
CAL-51 [2], 10 nM	70.6
CAL-51 [2], 100 nM	18
CAL-51 [9], 30 nM	42.3
CAL-51 [9], 300 nM	12.6
CAL-51 [15], 1000 nM	11.7
CAL-51 [15], 10000 nM	10.7
CAL-51 [20], 0.1 nM	103
CAL-51 [20], 1 nM	93.8
CAL-85-1 [3], 10 nM	33.4
CAL-85-1 [3], 100 nM	39.2
CAL-85-1 [10], 30 nM	34.9
CAL-85-1 [10], 300 nM	39.6
CAL-85-1 [16], 1000 nM	47.4
CAL-85-1 [16], 10000 nM	39.8
CAL-120, 1000 nM	19.9
CAL-120, 10000 nM	20.6
CAL-148 [1], 10 nM	21.4
CAL-148 [1], 100 nM	20.6
CAL-148 [8], 30 nM	16.5
CAL-148 [8], 300 nM	24.5
CAL-148 [14], 1000 nM	21.8
CAL-148 [14], 10000 nM	28.5
CAL-148 [19], 0.1 nM	87.6
CAL-148 [19], 1 nM	108
DU-4475 [4], 10 nM	56
DU-4475 [4], 100 nM	19.5
DU-4475 [11], 30 nM	36.9
DU-4475 [11], 300 nM	12
DU-4475 [17], 1000 nM	7.67
DU-4475 [17], 10000 nM	8.66
HCC1143, 1000 nM	32.1
HCC1143, 10000 nM	33.6
HCC1599, 1000 nM	73.7
HCC1599, 10000 nM	45.7
HCC1937, 1000 nM	13.2
HCC1937, 10000 nM	16.1
HDQ-P1 [5], 10 nM	46.4
HDQ-P1 [5], 100 nM	43.8
HDQ-P1 [12], 30 nM	33.5
HDQ-P1 [12], 300 nM	27.9
HDQ-P1 [18], 1000 nM	41.5
HDQ-P1 [18], 10000 nM	37.9
Hs578T, 1000 nM	12.7
Hs578T, 10000 nM	15.9
MDA-MB-231, 1000 nM	14.4
MDA-MB-231, 10000 nM	14.5
MDA-MB-436, 1000 nM	30.2
MDA-MB-436, 10000 nM	50.3
MDA-MB-453 [6], 10 nM	26.9
MDA-MB-453 [6], 100 nM	30.8
MDA-MB-453 [13], 30 nM	29.2
MDA-MB-453 [13], 300 nM	34.2
MDA-MB-468, 1000 nM	41.1
MDA-MB-468, 10000 nM	38.4
MFM-223 [7], 1000 nM	27.9
MFM-223 [7], 10000 nM	20.5
MFM-223 [21], 0.1 nM	99.7
MFM-223 [21], 1 nM	91
SK-BR-3, 1000 nM	16.6
SK-BR-3, 10000 nM	16.8
